Data taken from ChEMBL document CHEMBL2380205, “Discovery of a new class of natural product-inspired quinazolinone hybrid as potent antileishmanial agents” (J Med Chem, 2013).
Values belong to the molecule of their own block, whether it stands above or below them.

Columns and labels:
[1] = Cytotoxicity against african green monkey Vero cells after 72 hrs by MTT assay; format: cell-based; settings: chlorocebus sabaeus
[2] = Lipophilicity, log P of the compound; format: physicochemical; settings: octanol/water
Leishmania donovani [3] = test: Antileishmanial activity against promastigotes of Leishmania donovani MHOM/IN/60/Dd8 after 72 hrs by luciferase reporter gene assay; format: functional, organism-based; settings: MHOM/IN/60/Dd8, 72 h
Leishmania donovani [4] = test: Antileishmanial activity against amastigotes of Leishmania donovani MHOM/IN/60/Dd8 infected in golden hamster assessed as amastigote count at 50 mg/kg/day, ip administered for 5 days measured on day 7 of post last dose by Giemsa staining; format: functional; settings: MHOM/IN/60/Dd8, ip, route intraperitoneal
[5] = (§1) Selectivity index, ratio of CC50 for mouse J774A1 cells to IC50 for amastigotes of Leishmania donovani MHOM/IN/60/Dd8 infected in mouse J-774A.1 cells; format: functional, J774.A1
[6] = Cytotoxicity against mouse J774A1 cells after 72 hrs by MTT assay; format: cell-based, J774.A1
Leishmania donovani [7] = test: Antileishmanial activity against amastigotes of Leishmania donovani MHOM/IN/60/Dd8 infected in mouse J-774A.1 cells after 72 hrs by luciferase reporter gene assay; format: functional, organism-based; settings: MHOM/IN/60/Dd8, J774.A1, 72 h
J774.A1 = test: as §1; format: functional
Leishmania donovani [8] = test: Antileishmanial activity against amastigotes of Leishmania donovani MHOM/IN/60/Dd8 infected in golden hamster assessed as amastigote count at 40 mg/kg/day, ip administered for 5 days measured on day 7 of post last dose by Giemsa staining; format: functional, organism-based
Rattus norvegicus [9] = test: AUC (0 to t) in Sprague-Dawley rat at 10 mg/kg, po; format: ADME, organism-based, Plasma; design: dose 10 mg/kg, route oral; settings: in vivo
Rattus norvegicus [10] = test: Clearance in Sprague-Dawley rat at 10 mg/kg, po; format: ADME, organism-based; design: dose 10 mg/kg, route oral; settings: in vivo
[11] = AUC (0 to t) in Sprague-Dawley rat at 5 mg/kg, iv; format: ADME, organism-based; design: dose 5 mg/kg, route intravenous; settings: plasma
[12] = Cmax in Sprague-Dawley rat at 5 mg/kg, iv; format: ADME, organism-based; design: dose 5 mg/kg, route intravenous; settings: in vivo
Rattus norvegicus [13] = test: Volume of distribution at steady state in Sprague-Dawley rat at 5 mg/kg, iv; format: ADME, organism-based; design: dose 5 mg/kg, route intravenous; settings: in vivo
Rattus norvegicus [14] = test: Elimination half life in Sprague-Dawley rat at 5 mg/kg, iv; format: ADME, organism-based; design: dose 5 mg/kg, route intravenous; settings: in vivo
[15] = Elimination half life in Sprague-Dawley rat at 10 mg/kg, po; format: ADME, organism-based; design: dose 10 mg/kg, route oral; settings: in vivo, read-out: beta t1/2 (converted)
Rattus norvegicus [16] = test: Volume of distribution at steady state in Sprague-Dawley rat at 10 mg/kg, po; format: ADME, organism-based; design: dose 10 mg/kg, route oral; settings: in vivo
Albumin = Albumin (Bos taurus, UniProt P02769); test: Binding affinity to bovine serum albumin by fluorescence spectrophotometry; format: ADME; settings: cattle, isolated protein
Sequence of Albumin (P02769 whole entry): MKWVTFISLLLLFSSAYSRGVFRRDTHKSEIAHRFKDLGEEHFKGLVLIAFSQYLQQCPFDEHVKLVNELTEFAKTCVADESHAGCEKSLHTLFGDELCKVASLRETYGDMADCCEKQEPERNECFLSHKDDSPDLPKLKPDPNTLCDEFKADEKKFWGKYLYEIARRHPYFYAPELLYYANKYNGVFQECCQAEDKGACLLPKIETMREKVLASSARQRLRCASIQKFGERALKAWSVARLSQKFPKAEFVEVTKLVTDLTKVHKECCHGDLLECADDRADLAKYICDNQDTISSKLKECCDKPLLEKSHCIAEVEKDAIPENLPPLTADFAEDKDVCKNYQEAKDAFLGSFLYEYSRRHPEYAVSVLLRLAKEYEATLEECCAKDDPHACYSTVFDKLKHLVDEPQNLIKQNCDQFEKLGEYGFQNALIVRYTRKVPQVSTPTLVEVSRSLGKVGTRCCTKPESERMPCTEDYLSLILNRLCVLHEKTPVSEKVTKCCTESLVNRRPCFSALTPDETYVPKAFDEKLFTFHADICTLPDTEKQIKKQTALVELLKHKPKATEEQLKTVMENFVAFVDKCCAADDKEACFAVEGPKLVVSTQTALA

Leishmania [17] = test: Antileishmanial activity against amastigotes of Leishmania infected in mouse J-774A.1 cells assessed as decrease in […] production at IC50 after 24 hrs by ELISA relative to control; format: functional, J774.A1
Rattus norvegicus [18] = test: Clearance in Sprague-Dawley rat at 5 mg/kg, iv; format: ADME, organism-based; design: dose 5 mg/kg, route intravenous; settings: in vivo
[19] = Mean residence time in Sprague-Dawley rat at 10 mg/kg, po; format: ADME, organism-based; design: dose 10 mg/kg, route oral; settings: in vivo
Leishmania [20] = test: Antileishmanial activity against amastigotes of Leishmania infected in mouse J-774A.1 cells assessed as increase in IL-12 production at IC50 after 24 hrs by ELISA relative to control; format: functional, J774.A1
Leishmania [21] = test: Antileishmanial activity against amastigotes of Leishmania infected in mouse J-774A.1 cells assessed as increase in TNF-alpha production at IC50 after 24 hrs by ELISA relative to control; format: functional, J774.A1
Rattus norvegicus [22] = test: Mean residence time in Sprague-Dawley rat at 5 mg/kg, iv; format: ADME, organism-based; design: dose 5 mg/kg, route intravenous; settings: in vivo
[23] = Cmax in Sprague-Dawley rat at 10 mg/kg, po; format: ADME, organism-based; design: dose 10 mg/kg, route oral; settings: in vivo
[24] = Oral bioavailability in Sprague-Dawley rat at 10 mg/kg; format: ADME, organism-based; settings: in vivo
Leishmania [25] = test: Antileishmanial activity against amastigotes of Leishmania infected in mouse J-774A.1 cells assessed as decrease in IL-10 production at IC50 after 24 hrs by ELISA relative to control; format: functional, J774.A1
[26] = Tmax in Sprague-Dawley rat at 5 mg/kg, iv; format: ADME, organism-based; design: dose 5 mg/kg, route intravenous; settings: in vivo
[27] = Tmax in Sprague-Dawley rat at 10 […], po; format: ADME, organism-based; settings: in vivo
Leishmania [28] = test: Antileishmanial activity against amastigotes of Leishmania infected mouse J774A1 cells assessed as induction of nitric oxide generation after 24 hrs by ELISA (reference value: 4.65 uM); format: functional, J774.A1

Molecule: Nc1nc(-c2ccc(Cl)cc2)cc(-c2ccc(C3NC(=O)c4ccccc4N3)cc2)n1 (stereo unspecified)
CC50 at 72 h [1]: 323 µM | logP [2]: 4.49 | IC50 (Leishmania donovani [3]): 3.07 µM | inhibition in vivo at 50 mg/kg/day (Leishmania donovani [4]): 35.8% | Ratio CC50/IC50 [5]: 43.46 | CC50 at 72 h [6]: 82.2 µM | IC50 (Leishmania donovani [7]): 1.89 µM

Molecule: Sodium stibogluconate
Ratio CC50/IC50 (J774.A1): > 8.57 | inhibition (Leishmania donovani [8]): 86.9%

Molecule: CC1(c2ccc(NC(c3ccc(Cl)cc3)c3nnnn3C(C)(C)C)cc2)NC(=O)c2ccccc2N1 (stereo unspecified)
CC50 at 72 h [1]: > 400 µM | IC50 (Leishmania donovani [3]): 1.21 µM | Ratio CC50/IC50 [5]: >56.65 | CC50 at 72 h [6]: > 400 µM | IC50 (Leishmania donovani [7]): 7.06 µM

Molecule: CCCCNc1nc(NCCCC)nc(Nc2ccc(C3(C)NC(=O)c4ccccc4N3)cc2)n1 (stereo unspecified)
CC50 at 72 h [1]: 142 µM | IC50 (Leishmania donovani [3]): 7.69 µM | Ratio CC50/IC50 [5]: 8.35 | CC50 at 72 h [6]: 40.1 µM | IC50 (Leishmania donovani [7]): 4.8 µM

Molecule: CC1(c2ccc(Nc3nc(N4CCCCC4)nc(N4CCCCC4)n3)cc2)NC(=O)c2ccccc2N1 (stereo unspecified)
CC50 at 72 h [1]: > 400 µM | logP [2]: 6.23 | AUCt (Rattus norvegicus [9]): 327 ng·h/mL | CL (Rattus norvegicus [10]): 29.8 mL/min/kg | IC50 (Leishmania donovani [3]): 7.05 µM | AUC(0-t) [11]: 2840 ng·h/mL | Cmax [12]: 1830 ng/mL | Vdss (Rattus norvegicus [13]): 5.44 L/kg | inhibition in vivo at 50 mg/kg/day (Leishmania donovani [4]): 73.2% | beta t1/2 (Rattus norvegicus [14]): 0.84 h | half-life [15]: 1.26 h | Vdss (Rattus norvegicus [16]): 5.39 L/kg | KSV (Albumin): 10 ×10⁴ L/mol | Kq (Albumin): 10 ×10¹² L/mol/s | fold change (FC) (Leishmania [17]): 2.8 | Ratio CC50/IC50 [5]: >101.26 | CL (Rattus norvegicus [18]): 29.5 mL/min/kg | MRT [19]: 3.01 h | fold change (FC) (Leishmania [20]): 6 | fold change (FC) (Leishmania [21]): >9 | MRT (Rattus norvegicus [22]): 3.07 h | CC50 at 72 h [6]: > 400 µM | Cmax [23]: 108 ng/mL | bioavailability [24]: 5.75% | fold change (FC) (Leishmania [25]): >3 | IC50 (Leishmania donovani [7]): 3.95 µM | Tmax [26]: 4.8 min | Tmax [27]: 2 h | Activity (Leishmania [28]): 15.72 µM

Molecule: COc1ccc(C(Nc2ccc(C3(C)NC(=O)c4ccccc4N3)cc2)c2nnnn2C(C)(C)C)cc1 (stereo unspecified)
CC50 at 72 h [1]: > 400 µM | IC50 (Leishmania donovani [3]): 3.05 µM | Ratio CC50/IC50 [5]: >30.65 | CC50 at 72 h [6]: > 400 µM | IC50 (Leishmania donovani [7]): 13.1 µM

Molecule: CC(C)(C)Nc1nc(Nc2ccc(C3(C)NC(=O)c4ccccc4N3)cc2)nc(NC(C)(C)C)n1 (stereo unspecified)
CC50 at 72 h [1]: 159 µM | IC50 (Leishmania donovani [3]): 1.02 µM | Ratio CC50/IC50 [5]: 11.07 | CC50 at 72 h [6]: 60.7 µM | IC50 (Leishmania donovani [7]): 5.48 µM

Molecule: CC1(c2ccc(Nc3nc(N4CCCCCC4)nc(N4CCCCCC4)n3)cc2)NC(=O)c2ccccc2N1 (stereo unspecified)
CC50 at 72 h [1]: > 400 µM | IC50 (Leishmania donovani [3]): 6.02 µM | inhibition in vivo at 50 mg/kg/day (Leishmania donovani [4]): 37.4% | Ratio CC50/IC50 [5]: 91.64 | CC50 at 72 h [6]: 237 µM | IC50 (Leishmania donovani [7]): 2.59 µM

The next lines start with results.

IC50 (Leishmania donovani [3]): 39.4 µM | IC50 (Leishmania donovani [7]): 11.3 µM
Molecule: CC1(c2ccc(NC(c3ccc(Cl)cc3)c3nnnn3C3CCCCC3)cc2)NC(=O)c2ccccc2N1 (stereo unspecified)
CC50 at 72 h [1]: > 400 µM | Ratio CC50/IC50 [5]: >35.3 | CC50 at 72 h [6]: > 400 µM

logP [2]: 8.53 | IC50 (Leishmania donovani [3]): > 40 µM | IC50 (Leishmania donovani [7]): 4.74 µM
Molecule: CC(C)c1ccc(C(C(=O)NC2CCCCC2)N(C(=O)c2cccc(Cl)c2)c2ccc(C3(C)NC(=O)c4ccccc4N3)cc2)cc1 (stereo unspecified)
CC50 at 72 h [1]: > 400 µM | inhibition in vivo at 50 mg/kg/day (Leishmania donovani [4]): 48% | Ratio CC50/IC50 [5]: >84.38 | CC50 at 72 h [6]: > 400 µM

IC50 (Leishmania donovani [3]): 5.79 µM | IC50 (Leishmania donovani [7]): 10.1 µM
Molecule: COc1ccc(-c2cc(-c3ccc(C4NC(=O)c5ccccc5N4)cc3)nc(N)n2)cc1 (stereo unspecified)
CC50 at 72 h [1]: 124 µM | Ratio CC50/IC50 [5]: 17.64 | CC50 at 72 h [6]: 178 µM

IC50 (Leishmania donovani [3]): > 40 µM | IC50 (Leishmania donovani [7]): 9.42 µM
Molecule: CC1(c2ccc(NC(c3ccc(Br)cc3)c3nnnn3C3CCCCC3)cc2)NC(=O)c2ccccc2N1 (stereo unspecified)
CC50 at 72 h [1]: > 400 µM | Ratio CC50/IC50 [5]: >42.46 | CC50 at 72 h [6]: > 400 µM
